The target in the experiment is T1, STAT6 (Homo sapiens, UniProt P42226).
T1 construct: endogenous in cells; host or cells: MOLM-16, KU-812, SKNO1, MB231, L1236
T1 sequence (P42226 1-847): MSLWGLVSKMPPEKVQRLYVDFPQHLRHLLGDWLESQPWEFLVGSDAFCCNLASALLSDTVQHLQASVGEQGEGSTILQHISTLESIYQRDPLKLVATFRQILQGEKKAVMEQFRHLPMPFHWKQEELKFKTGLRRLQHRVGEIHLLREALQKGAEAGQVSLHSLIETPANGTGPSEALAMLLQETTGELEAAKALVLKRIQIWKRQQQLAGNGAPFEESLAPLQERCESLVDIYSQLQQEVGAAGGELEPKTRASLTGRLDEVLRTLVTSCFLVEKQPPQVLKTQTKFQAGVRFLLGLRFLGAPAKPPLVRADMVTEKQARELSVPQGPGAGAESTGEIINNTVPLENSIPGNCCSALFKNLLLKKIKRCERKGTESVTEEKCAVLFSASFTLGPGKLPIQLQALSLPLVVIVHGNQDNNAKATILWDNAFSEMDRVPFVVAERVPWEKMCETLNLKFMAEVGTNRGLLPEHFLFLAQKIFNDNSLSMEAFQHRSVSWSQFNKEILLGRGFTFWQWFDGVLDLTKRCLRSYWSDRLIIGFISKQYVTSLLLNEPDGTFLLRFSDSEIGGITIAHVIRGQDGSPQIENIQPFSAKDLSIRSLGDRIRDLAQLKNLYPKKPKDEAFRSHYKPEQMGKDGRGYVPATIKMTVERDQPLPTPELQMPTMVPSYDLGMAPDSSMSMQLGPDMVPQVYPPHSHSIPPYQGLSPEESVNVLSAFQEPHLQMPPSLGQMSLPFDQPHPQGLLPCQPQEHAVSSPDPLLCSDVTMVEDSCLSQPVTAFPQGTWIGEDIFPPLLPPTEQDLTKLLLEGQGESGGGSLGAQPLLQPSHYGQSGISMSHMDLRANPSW
Briefly: Immunoblotting (Western blot) analysis of STAT6 degradation efficiency of degraders in treated cells. Type of experiment: cell-based. The procedure:
Evaluation of the degradation efficiency of degraders may be accomplished by immunoblotting analysis. The representative general protocol is the following:
Cells are maintained in the appropriate culture medium with 10% FBS at 37° C. and an atmosphere of 5% CO2. Cell lines are used within three months of thawing fresh vials. Cells are lysed 1× Cell Lysis Buffer (Cell Signaling Technology, #9803), resolved by SDS-PAGE NuPAGE gel (Thermo Fisher Scientific), and transferred to a PVDF membrane (Millipore). Membranes are blocked using Odyssey TBS Blocker Buffer (LI-COR). IRDye 680RD and 800CW Dye-labeled secondary antibodies (LI-COR) are used. The washed membranes are scanned using Odyssey CLx imager (LI-COR). The intensity of Western blot signaling is quantitated using the Odyssey software. Primary antibodies used are: STAT5 Rabbit mAb (Cell Signaling Technology, #94205), STAT6 Rabbit mAb (Cell Signaling Technology, #5397) and GAPDH mouse monoclonal antibody (Santa Cruz Biotechnology, sc-47724).
To evaluate the degradation efficiency of degraders, immunoblotting analysis was performed. The general protocol is the following.
About 1 million cells for each data point were treated with compounds at indicated concentrations and durations. Untreated and treated cells in cell culture medium were transferred into tubes, followed by centrifugation at 3,000 rpm and 4° C. for 6 min Supernatants were removed from tubes and radioimmunoprecipitation assay (RIPA) lysis buffer supplemented with 1% protease inhibitor cocktail (Fisher Scientific cat. PI87786) and phosphatase inhibitor (Roche cat. 04906837001) were added to tubes containing the remaining cell pellets. The tubes were then left on ice for 30 min and placed in a −80° C. freezer. Subsequently they were thawed in 37° C. water, then centrifuged at 14,000 rpm for 15 min and the cell lysates transferred to new tubes. The concentration of total proteins in each tube was calculated using the Pierce BCA protein Assay kit (cat. 23225). Based on the calculated protein concentration, cell lysates containing approximately the same amount of proteins were transferred to new tubes, then distilled water and 4× Protein Sample Loading Buffer for Western Blots (LI-COR cat. 928-40004) supplemented with 20% of mercaptoethanol (Sigma Aldrich cat. M6250) were added on ice. The cell lysates were then reduced and denatured at 95° C. for 5 min. From the tubes containing cell lysates an equal amount of protein samples (20-40 μg) was loaded into precast 8%, 10%, 4%-12%, or 4%-20% Tris-glycine gels (Novex) filled with Tris-glycine SDS running buffer. After the proteins were resolved, they were transferred onto Immobile-FL PVDF Membrane (Millipore Sigma cat. IPFL00010), using Mini Trans-Blot Electrophoretic Transfer Cell (Bio-Rad 1703930). The membranes were blocked with Intercept Blocking Buffer (LI-COR cat. 927-70001) in LI-COR Western Blot boxes for 1 h at rt. The membranes were washed with 1× Tris-buffered saline-Tween-20 (TBST, 1× solution was made from 20×TBST solution, ThermoFisher Scientific cat. 28360) for 5 min 4 times. The membranes were incubated overnight at 4° C. in Intercept Blocking Buffer supplemented with primary antibodies (normally antibody:buffer 1:1000) and Tween-20. The membranes were washed with TBST for 5 min 4 times and were incubated with Intercept Blocking Buffer supplemented with IRDye 800CE Secondary Antibodies, IRDye 680RD Secondary Antibodies (LI-COR biosciences), Tween-20, and 10% SDS solution, for 1 h at rt. The membranes were then washed with TBST for 5 min 4 times and rinsed with deionized water before drying and scanning with Odyssey Dlx Amazing System (LI-COR). The immunoblots were finally quantified by the software.
On the technique in general: In western blotting, separated proteins are transferred to a membrane and probed.

[1] abbreviates: L1236 cells, read-out: DC50 S6 L1236.
Setting [2] is: MOLM-16 cells, class symbols, read-out: DC50 S6 MOLM-16.

Each structure is given as a SMILES string. Where two headings read alike, the source gives them in different places.

Turning to `Cc1ncsc1-c1ccc(CNC(=O)[C@@H]2C[C@@H](O)CN2C(=O)[C@@H](NC(=O)CCCCCCCCCNC(=O)CO[C@@H]2C[C@@H](C(=O)N(C)c3ccc(Br)cc3)N(C(=O)[C@@H](NC(=O)c3cc4cc(C(F)(F)P(=O)(O)O)ccc4s3)C(C)(C)C)C2)C(C)(C)C)cc1` [Compound 421, ((2-(((S)-1-((2S,4R)-2-((4-bromophenyl)(methyl)carbamoyl)-4-(2-((10-(((S)-1-((2S,4R)-4-hydroxy-2-((4-(4-methylthiazol-5-yl)benzyl)carbamoyl)pyrrolidin-1-yl)-3,3-dimethyl-1-oxobutan-2-yl)amino)-10-oxodecyl)amino)-2-oxoethoxy)pyrrolidin-1-yl)-3,3-dimethyl-1-oxobutan-2-yl)carbamoyl)benzo[b]thiophen-5-yl)difluoromethyl)phosphonic acid], the DC50 (commonly the concentration giving 50% degradation) is more than 10 µM under setting [1] and more than 10 µM (MB231 cells, read-out: DC50 S6 MB231). Turning to `Cc1ncsc1-c1ccc([C@H](C)NC(=O)[C@@H]2C[C@@H](O)CN2C(=O)[C@@H](NC(=O)CCCCCNC(=O)CC(=O)N2CCN(C(=O)[C@@H](NC(=O)c3cc4cc(C(F)(F)P(=O)(O)O)ccc4s3)C(C)(C)C)[C@H](C(=O)N3CCC[C@H](c4ccccc4)C3)C2)C(C)(C)C)cc1` [Compound 456, (difluoro(2-(((S)-1-((S)-4-(3-((6-(((S)-1-((2,4R)-4-hydroxy-2-(((S)-1-(4-(4-methylthiazol-5-yl)phenyl)ethyl)carbamoyl)pyrrolidin-1-yl)-3,3-dimethyl-1-oxobutan-2-yl)amino)-6-oxohexyl)amino)-3-oxopropanoyl)-2-((R)-3-phenylpiperidine-1-carbonyl)piperazin-1-yl)-3,3-dimethyl-1-oxobutan-2-yl)carbamoyl)benzo[b]thiophen-5-yl)methyl)phosphonic acid], the DC50 runs as follows: under setting [1], more than 10 µM; under setting [2], more than 10 µM. For `CC(C)(C)[C@H](NC(=O)c1cc2cc(C(F)(F)P(=O)(O)O)ccc2s1)C(=O)N1C[C@@H](OCCCCCCC#Cc2cccc3c2CN(C2CCC(=O)NC2=O)C3=O)C[C@H]1C(=O)N1CCOC(c2cccnc2)C1` (stereo partly shown) [Compound 609], the half-maximal degradation concentration (DC50) (MOLM-16 cells, numeric bound, read-out: DC50 S6 MOLM-16) is more than 0.3 µM. Regarding `CC(C)(C)[C@H](NC(=O)c1cc2cc(C(F)(F)P(=O)(O)O)ccc2s1)C(=O)N1Cc2cc(OCC(=O)NCCC#Cc3ccc4c(c3)C(=O)N(C3CCC(=O)NC3=O)C4=O)ccc2C[C@H]1C(=O)N1CCO[C@H](c2ccccc2)C1` (stereo partly drawn) [Compound 538, ((2-(((2S)-1-((3S)-7-(2-((4-(2-(2,6-dioxopiperidin-3-yl)-1,3-dioxoisoindolin-5-yl)but-3-yn-1-yl)amino)-2-oxoethoxy)-3-((R)-2-phenylmorpholine-4-carbonyl)-3,4-dihydroisoquinolin-2(1H)-yl)-3,3-dimethyl-1-oxobutan-2-yl)carbamoyl)benzo[b]thiophen-5-yl)difluoromethyl)phosphonic acid], the DC50 under setting [2] was more than 10 µM. Same read-out and setting: the figure for `CC(C)(C)[C@H](NC(=O)c1cc2cc(C(F)(F)P(=O)(O)O)ccc2s1)C(=O)N1CCN(C(=O)CC(=O)NCCCC#Cc2cccc3c2C(=O)N(C2CCC(=O)NC2=O)C3=O)C[C@H]1C(=O)N1CCO[C@H](c2ccccc2)C1` (stereo partly drawn) [Compound 511, ((2-(((2S)-1-((2S)-4-(3-((5-(2-(2,6-dioxopiperidin-3-yl)-1,3-dioxoisoindolin-4-yl)pent-4-yn-1-yl)amino)-3-oxopropanoyl)-2-((R)-2-phenylmorpholine-4-carbonyl)piperazin-1-yl)-3,3-dimethyl-1-oxobutan-2-yl)carbamoyl)benzo[b]thiophen-5-yl)difluoromethyl)phosphonic acid] is 1 to 10 µM.
